Measured values reported in paper PMC6019134, “1,2,6-Thiadiazinones as Novel Narrow Spectrum Calcium/Calmodulin-Dependent Protein Kinase Kinase 2 (CaMKK2) Inhibitors” (Molecules : A Journal of Synthetic Chemistry and Natural …, 2018).
pIC50: −log10 of the molar value. “Also recorded” adds a separate entry of the source.

Key:
[1] = target: T1, CAMK1D (Homo sapiens, UniProt Q8IU85); assay: DSF thermal shift, kinase panel; format: binding; conditions: 10 μM compound
T1 construct: purchased in-house (home-made panel, SGC-style construct names)
Procedure: (§1) The corresponding dianilino-TDZs (1–5) were tested on a panel of 46 protein kinases representing the major kinome branches at a concentration of 10 μM using a Differential Scanning Fluorimetry (DSF). Only analogues 1–3 induced a significant (>2 °C) thermal shift when incubated with a subset of the proteins (Table 1).
(§2) Kinase selectivity assay—A home-made kinase panel was generated for the following enzymes: AAK1, BMP2K, BMX, BRAF, CAMK1D, CAMK1G, CAMKK1, CAMKK2B, CDC42BPA, CDK2, CDKL1, CHEK2, CLK1, CSNK1G1, CSNK1G3, CSNK2A1, DYRK1A, DYRK2A, EPHA2, GAK, GSG2, MAPK1, MAP2K7, MAPK14B, MAPK3, PHKG2, PIM1, PLK1, PKMYT1, PRPF4B, RPS6KA1A, RPS6KA5A, RPS6KA6A, SLK, SRPK1, SRPK2, STK3, STK6, STK10, STK17A, STK24, STK38L, TRIB2, TTK, VRK1 and VRK2. Proteins were produced in E. coli, purified in a Ni-chelate column, followed by overnight digestion using TEV protease (made in house with an N-terminal 6xHis tag) and dialysis to remove imidazole. To clear samples of uncleaved proteins and the TEV protease, samples were loaded on new Ni-chelate columns. The flow through was collected, concentrated and loaded to a HiLoad Superdex 200 16/600 column (GE Healthcare, Chicago, IL, USA) for final polishing and buffer exchange.
(§3) Starting from 100 µM protein stocks, our kinase panel enzymes were diluted to 1 µM in buffer 100 mM K2HPO4 pH 7.5 containing 150 mM NaCl, 10% glycerol and 5X dye (Applied Biosystems catalogue 4461806). The protein/dye mixture was transferred to a 384-well PCR microplate having 20 µL per well. Compounds in DMSO at 10 mM concentration were added in 20 nL volume, using a liquid handling device setup with a pin head, to make 10 µM compound concentration in the assay plate.
(§4) Protein thermal shift data was measured in a qPCR instrument (Applied Biosystems QuantStudio 6) programmed to equilibrate the plate at 25 °C for 5 min followed by ramping the temperature to 95 °C at a rate of 0.05 °C/s. Data was processed using Protein Thermal shift software (Applied Biosystems) by fitting experimental curves to a Boltzmann function to calculate differential thermal shifts (dTm) referenced to protein/dye in 0.2% DMSO.

[2] = target: T2, CDC42BPA (Homo sapiens, UniProt Q5VT25); assay: DSF thermal shift, kinase panel; format: binding; conditions: 10 μM compound
T2 construct: purchased in-house (home-made panel, SGC-style construct names)
Procedure: as §1, §2, §3, §4

[3] = target: T3, CLK1 (Homo sapiens, UniProt P49759); assay: DSF thermal shift, kinase panel; format: binding; conditions: 10 μM compound
T3 construct: purchased in-house (home-made panel, SGC-style construct names)
Procedure: as §1, §2, §3, §4

[4] = target: T4, DYRK1AA (Homo sapiens, UniProt Q13627); assay: DSF thermal shift, kinase panel; format: binding; conditions: 10 μM compound
T4 construct: purchased in-house (home-made panel, SGC-style construct names)
Procedure: as §1, §2, §3, §4

[5] = target: T5, PIM1A (Homo sapiens, UniProt P11309); assay: DSF thermal shift, kinase panel; format: binding; conditions: 10 μM compound
T5 construct: purchased in-house (home-made panel, SGC-style construct names)
Procedure: as §1, §2, §3, §4

[6] = target: T6, PRPF4BA (Homo sapiens, UniProt Q13523); assay: DSF thermal shift, kinase panel; format: binding; conditions: 10 μM compound
T6 construct: purchased in-house (home-made panel, SGC-style construct names)
Procedure: as §1, §2, §3, §4

[7] = target: T7, SRPK1A (Homo sapiens, UniProt Q96SB4); assay: DSF thermal shift, kinase panel; format: binding; conditions: 10 μM compound
T7 construct: purchased in-house (home-made panel, SGC-style construct names)
Procedure: as §1, §2, §3, §4

[8] = target: T8, STK3 (Homo sapiens, UniProt Q13188); assay: DSF thermal shift, kinase panel; format: binding; conditions: 10 μM compound
T8 construct: purchased in-house (home-made panel, SGC-style construct names)
T8 sequence (Q13188 1-491): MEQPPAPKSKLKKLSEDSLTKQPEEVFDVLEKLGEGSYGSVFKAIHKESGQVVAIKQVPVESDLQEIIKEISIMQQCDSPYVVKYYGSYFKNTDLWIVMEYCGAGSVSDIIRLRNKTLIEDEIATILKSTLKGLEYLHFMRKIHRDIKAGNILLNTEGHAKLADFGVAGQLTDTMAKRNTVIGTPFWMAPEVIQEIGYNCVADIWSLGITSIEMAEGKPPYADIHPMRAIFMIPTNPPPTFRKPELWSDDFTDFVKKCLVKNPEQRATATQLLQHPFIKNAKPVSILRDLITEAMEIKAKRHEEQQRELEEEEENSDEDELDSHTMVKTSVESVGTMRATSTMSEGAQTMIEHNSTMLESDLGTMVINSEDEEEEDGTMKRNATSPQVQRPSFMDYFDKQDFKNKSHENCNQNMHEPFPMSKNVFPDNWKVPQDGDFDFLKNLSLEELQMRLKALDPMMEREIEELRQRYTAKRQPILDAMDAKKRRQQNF
Procedure: as §1, §2, §3, §4

[9] = target: T9, TRIB2A (Homo sapiens, UniProt Q92519); assay: DSF thermal shift, kinase panel; format: binding; conditions: 10 μM compound
T9 construct: TEV-cleavable (cleaved yes); made in house; host or cells: E. coli
T9 sequence (Q92519 1-343): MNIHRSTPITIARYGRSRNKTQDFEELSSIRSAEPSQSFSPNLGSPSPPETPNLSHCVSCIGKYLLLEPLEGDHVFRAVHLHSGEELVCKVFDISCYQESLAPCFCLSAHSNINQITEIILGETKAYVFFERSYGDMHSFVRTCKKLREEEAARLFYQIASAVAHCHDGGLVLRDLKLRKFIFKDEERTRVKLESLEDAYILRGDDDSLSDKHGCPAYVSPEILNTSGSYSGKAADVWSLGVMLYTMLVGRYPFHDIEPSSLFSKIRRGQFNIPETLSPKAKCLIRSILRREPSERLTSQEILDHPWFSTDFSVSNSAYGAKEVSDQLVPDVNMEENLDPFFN
Procedure: as §1, §2, §3, §4

[10] = target: T10, VRK2A (Homo sapiens, UniProt Q86Y07); assay: DSF thermal shift, kinase panel; format: binding; conditions: 10 μM compound
T10 construct: TEV-cleavable (cleaved yes); made in house; host or cells: E. coli
Procedure: as §1, §2, §3, §4

[11] = test system: panel of 46 protein kinases; assay: DSF kinome selectivity panel, hits over 2 °C; format: binding; conditions: 10 μM compound, average of 4 experiments; for Number of Kinases Hit DSF > 2 °C: of 46 kinases; for Kinases Hit DSF > 2 °C: names of the kinases hit, 46 kinases
Procedure: as §1, §2, §3, §4

[12] = target: T11, CAMKK2 kinase domain (132–470) (Homo sapiens, UniProt Q96RR4); assay: CaMKK2B TR-FRET tracer displacement assay; format: binding; conditions: CaMKK2, displacement of tracer 236, average of 2 experiments
T11 construct: CAMKK2 kinase domain (132–470) was cloned in a pNIC-Bio2 vector; 10xHis tag followed by a TEV site (N, cleaved yes); made in house; host or cells: E. coli BL21(DE3)-R3-BirA
T11 sequence (Q96RR4 132-470): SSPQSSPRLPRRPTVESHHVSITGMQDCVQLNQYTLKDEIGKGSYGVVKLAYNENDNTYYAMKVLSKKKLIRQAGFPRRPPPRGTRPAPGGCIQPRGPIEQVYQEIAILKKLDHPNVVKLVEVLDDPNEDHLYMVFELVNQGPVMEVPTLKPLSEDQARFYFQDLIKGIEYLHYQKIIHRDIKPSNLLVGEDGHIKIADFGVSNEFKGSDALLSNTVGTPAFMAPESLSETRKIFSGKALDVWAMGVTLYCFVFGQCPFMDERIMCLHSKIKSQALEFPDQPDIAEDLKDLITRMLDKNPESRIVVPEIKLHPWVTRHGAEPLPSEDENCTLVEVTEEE
Excerpt: To more accurately determine the relative changes in potency of the TDZ analogues and to enable measurement of accurate IC50^’s, we developed a Time-Resolved Fluorescence Resonance Energy Transfer (TR-FRET) assay. The TR-FRET tracer displacement assays were generated using a protocol derived from the Lanthascreen binding assays (ThermoFisher Scientific, Waltham, MA, USA) [21].

T7 sequence (Q96SB4 whole entry): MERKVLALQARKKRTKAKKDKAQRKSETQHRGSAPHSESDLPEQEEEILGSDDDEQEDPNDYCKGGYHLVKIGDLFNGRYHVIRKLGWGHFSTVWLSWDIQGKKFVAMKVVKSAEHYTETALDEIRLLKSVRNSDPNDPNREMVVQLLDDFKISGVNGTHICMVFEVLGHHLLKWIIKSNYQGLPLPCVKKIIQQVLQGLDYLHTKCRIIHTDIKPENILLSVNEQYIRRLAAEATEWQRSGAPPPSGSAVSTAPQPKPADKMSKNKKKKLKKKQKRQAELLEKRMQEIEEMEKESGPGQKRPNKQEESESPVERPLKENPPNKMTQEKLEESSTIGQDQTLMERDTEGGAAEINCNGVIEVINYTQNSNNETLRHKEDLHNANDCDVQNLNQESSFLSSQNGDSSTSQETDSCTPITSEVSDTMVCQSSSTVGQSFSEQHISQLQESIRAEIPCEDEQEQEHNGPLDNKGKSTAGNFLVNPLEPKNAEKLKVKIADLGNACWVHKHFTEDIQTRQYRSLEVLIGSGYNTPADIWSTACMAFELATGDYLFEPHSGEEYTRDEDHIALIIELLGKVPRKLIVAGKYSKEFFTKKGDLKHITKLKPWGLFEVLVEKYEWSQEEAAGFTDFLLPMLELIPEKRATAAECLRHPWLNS
T5 sequence (P11309 whole entry): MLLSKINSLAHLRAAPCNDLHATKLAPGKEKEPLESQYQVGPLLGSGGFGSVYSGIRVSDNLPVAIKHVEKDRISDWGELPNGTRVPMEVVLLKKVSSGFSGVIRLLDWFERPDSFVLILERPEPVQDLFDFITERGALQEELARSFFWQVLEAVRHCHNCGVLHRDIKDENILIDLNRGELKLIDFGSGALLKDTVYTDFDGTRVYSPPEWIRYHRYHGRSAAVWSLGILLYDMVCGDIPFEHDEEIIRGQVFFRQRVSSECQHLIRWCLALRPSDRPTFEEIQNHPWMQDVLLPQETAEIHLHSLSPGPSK
T3 sequence (P49759 whole entry): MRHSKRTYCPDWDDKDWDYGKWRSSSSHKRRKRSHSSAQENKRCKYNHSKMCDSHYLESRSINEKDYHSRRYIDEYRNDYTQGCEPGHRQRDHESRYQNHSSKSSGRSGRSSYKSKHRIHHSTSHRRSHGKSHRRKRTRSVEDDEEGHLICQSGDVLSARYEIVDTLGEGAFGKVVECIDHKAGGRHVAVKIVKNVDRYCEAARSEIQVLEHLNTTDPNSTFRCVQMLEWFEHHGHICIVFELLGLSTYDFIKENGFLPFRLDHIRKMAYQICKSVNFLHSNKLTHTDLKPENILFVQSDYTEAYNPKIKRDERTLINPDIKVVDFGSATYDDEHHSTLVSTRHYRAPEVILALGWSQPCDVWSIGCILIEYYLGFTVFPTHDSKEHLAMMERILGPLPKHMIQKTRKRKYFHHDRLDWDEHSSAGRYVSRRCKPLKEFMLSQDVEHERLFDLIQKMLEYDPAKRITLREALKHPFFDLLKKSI
T1 sequence (Q8IU85 whole entry): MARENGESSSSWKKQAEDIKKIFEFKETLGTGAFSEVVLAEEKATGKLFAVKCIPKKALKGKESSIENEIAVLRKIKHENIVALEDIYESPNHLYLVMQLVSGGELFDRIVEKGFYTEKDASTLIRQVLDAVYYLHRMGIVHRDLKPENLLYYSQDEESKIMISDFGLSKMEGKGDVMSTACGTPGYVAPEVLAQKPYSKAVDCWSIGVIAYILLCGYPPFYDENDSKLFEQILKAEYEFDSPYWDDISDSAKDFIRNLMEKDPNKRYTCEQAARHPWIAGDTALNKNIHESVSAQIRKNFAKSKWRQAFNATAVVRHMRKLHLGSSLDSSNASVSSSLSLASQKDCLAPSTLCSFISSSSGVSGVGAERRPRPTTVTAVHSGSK
T6 sequence (Q13523 whole entry): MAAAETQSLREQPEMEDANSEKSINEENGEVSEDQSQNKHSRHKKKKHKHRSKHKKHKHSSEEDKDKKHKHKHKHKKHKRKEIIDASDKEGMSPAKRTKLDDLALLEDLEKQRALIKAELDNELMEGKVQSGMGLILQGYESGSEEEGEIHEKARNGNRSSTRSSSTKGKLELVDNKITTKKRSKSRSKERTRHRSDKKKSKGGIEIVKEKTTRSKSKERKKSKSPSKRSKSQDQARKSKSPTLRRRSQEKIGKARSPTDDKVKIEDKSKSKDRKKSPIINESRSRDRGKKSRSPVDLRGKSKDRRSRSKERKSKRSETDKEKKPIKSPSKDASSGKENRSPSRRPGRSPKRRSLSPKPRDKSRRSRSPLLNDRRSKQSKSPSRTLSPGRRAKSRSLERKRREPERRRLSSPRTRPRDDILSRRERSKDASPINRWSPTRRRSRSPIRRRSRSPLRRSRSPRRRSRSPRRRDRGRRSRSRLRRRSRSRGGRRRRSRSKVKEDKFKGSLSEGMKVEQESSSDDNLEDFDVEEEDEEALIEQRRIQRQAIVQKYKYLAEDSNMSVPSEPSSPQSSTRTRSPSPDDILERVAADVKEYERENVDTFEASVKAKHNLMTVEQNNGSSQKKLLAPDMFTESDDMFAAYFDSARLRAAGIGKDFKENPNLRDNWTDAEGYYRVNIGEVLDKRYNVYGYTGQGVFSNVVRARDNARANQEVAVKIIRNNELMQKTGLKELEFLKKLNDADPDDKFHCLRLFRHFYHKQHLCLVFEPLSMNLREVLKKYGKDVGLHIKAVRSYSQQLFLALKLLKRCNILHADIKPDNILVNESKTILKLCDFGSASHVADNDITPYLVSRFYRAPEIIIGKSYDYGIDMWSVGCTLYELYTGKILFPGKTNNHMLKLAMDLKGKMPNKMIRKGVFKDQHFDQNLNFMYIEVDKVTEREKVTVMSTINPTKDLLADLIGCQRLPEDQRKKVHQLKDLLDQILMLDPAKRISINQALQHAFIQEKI
T10 sequence (Q86Y07 whole entry): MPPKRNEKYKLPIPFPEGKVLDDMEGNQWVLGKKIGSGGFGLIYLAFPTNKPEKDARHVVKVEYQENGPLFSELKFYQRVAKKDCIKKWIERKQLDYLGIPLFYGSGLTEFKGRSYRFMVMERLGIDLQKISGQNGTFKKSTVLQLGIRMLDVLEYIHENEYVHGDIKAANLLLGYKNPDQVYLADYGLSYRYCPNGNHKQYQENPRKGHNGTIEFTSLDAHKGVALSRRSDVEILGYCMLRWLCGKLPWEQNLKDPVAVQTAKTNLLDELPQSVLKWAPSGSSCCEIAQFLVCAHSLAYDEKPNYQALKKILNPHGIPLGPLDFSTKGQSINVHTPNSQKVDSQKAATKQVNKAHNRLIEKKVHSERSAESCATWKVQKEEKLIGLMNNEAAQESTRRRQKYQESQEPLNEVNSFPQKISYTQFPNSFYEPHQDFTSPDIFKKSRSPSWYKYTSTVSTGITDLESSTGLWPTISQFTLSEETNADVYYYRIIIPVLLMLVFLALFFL

SMILES	ΔTm at 10 µM [1]	ΔTm at 10 µM [2]	ΔTm at 10 µM [3]	ΔTm at 10 µM [4]	ΔTm at 10 µM [5]	ΔTm at 10 µM [6]	ΔTm at 10 µM [7]	ΔTm at 10 µM [8]	ΔTm at 10 µM [9]	ΔTm ([9]; 10 µM)	ΔTm at 10 µM [10]	Number of Kinases Hit DSF > 2 °C [11]	melting point	Kinases Hit DSF > 2 °C [11]	pIC50 [12]
CNC(=O)c1ccccc1Nc1nsnc(Nc2cccc(CS(C)(=O)=O)c2)c1=O [Compound 4, N-Methyl-2-([5-({3-[(methylsulfonyl)methyl]phenyl}amino)-4-oxo-4H-1,2,6-thiadiazin-3-yl]-amino}-benzamide]	-1.3 °C	-0.8 °C	0 °C	-0.5 °C	-0.7 °C	0.1 °C	0 °C	-0.4 °C	~1 °C	1,0 °C	-0.3 °C	0	> 300 °C	–	–
CNC(=O)c1ccccc1Nc1nsnc(Nc2ccc(N3CCOCC3)cc2)c1=O [Compound 5, N-Methyl-2-({5-[(4-morpholinophenyl)amino]-4-oxo-4H-1,2,6-thiadiazin-3-yl}amino)benzamide]	-0.9 °C	-0.6 °C	1 °C	-0.8 °C	-0.2 °C	0.1 °C	0 °C	-0.3 °C	~1 °C	–	-0.3 °C	0	285 to 287 °C	–	–
Cc1ccc(Nc2nsnc(Nc3ccc(C(N)=O)cc3)c2=O)cc1O [Compound 2, 4-({5-[(3-Hydroxy-4-methylphenyl)amino]-4-oxo-4H-1,2,6-thiadiazin-3-yl}amino)benzamide]	4.3 °C	4.8 °C	0.9 °C	0.9 °C	3.5 °C	0.1 °C	1.8 °C	2.1 °C	–	–	1.8 °C	16	> 300 °C	CAMK1D/G/K1/K2B, CDC42BPA, CDK2; also recorded: CHEK2, DYRK2, MAP2K7, PHKG2; also recorded: PIM1, PKMYT1, RPSKA6, STK3, STK17, TTK	< 4.30
Cc1ccc(Nc2nsnc(Nc3ccc4c(c3)CS(=O)(=O)C4)c2=O)cc1O [Compound 3, 3-[(2,2-Dioxido-1,3-dihydrobenzo[c]thiophen-5-yl)amino]-5-[(3-hydroxy-4-methylphenyl)amino]-4H-1,2,6-thiadiazin-4-one]	1.4 °C	2.3 °C	2.1 °C	-0.1 °C	4.1 °C	0.6 °C	0 °C	1.1 °C	4.9 °C	–	0.1 °C	9	> 300 °C	STK10, TRIB2, TTK; also recorded: CAMK1G/2B, CDC42BPA,; also recorded: CLK1, MAP2K7, PIM1,	4.47
Cc1ccc(Nc2nsnc(Nc3cccc(C(N)=O)c3)c2=O)cc1O [Compound 1, 3-({5-[(3-Hydroxy-4-methylphenyl)amino]-4-oxo-4H-1,2,6-thiadiazin-3-yl}amino)benzamide]	0.8 °C	0.3 °C	0.5 °C	-0.6 °C	1 °C	0.7 °C	0 °C	0.2 °C	2.5 °C	–	-0.6 °C	1	–	TRIB2	< 4.30
